In patent US9776972B2, “Pyrazole derivatives as arginine methyltransferase inhibitors and uses thereof” (priority 2013, dated 2017):
pIC50: −log10 of the molar value. Structures can show the parent of a compound that is named as a salt. Where two headings read alike, the source gives them in different places.

Legend:
[1] = test system: mono-methyl arginine in RKO cells; test: RKO Methylation Assay, In Cell Western (ICW) for mono-methyl arginine and DNA content; type: cell-based; conditions: for EC30: Homo sapiens, RKO, 72 h; for EC30 (In Cell Western data): class symbols
Summary of the method: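 After fixation, mono-methyl arginine and DNA (DRAQ5) were measured by infrared In-Cell Western imaging at 700/800 nm in RKO cells exposed to compounds for 72 hours. Percent activation used DMSO wells as minimum and 20 μM reference compound as maximum; EC30 curves fitted on triplicate wells.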

human PRMT6 = target: T1, human PRMT6 (Homo sapiens, UniProt Q96LA8); test: PRMT6 Biochemical Assay (3H-SAM Flashplate, peptide substrate)
T1 construct: Flag-PRMT6-His; made in house; host or cells: HEK 293F cells (BacMam baculovirus)
T1 sequence (Q96LA8 with tags, fused parts or gaps): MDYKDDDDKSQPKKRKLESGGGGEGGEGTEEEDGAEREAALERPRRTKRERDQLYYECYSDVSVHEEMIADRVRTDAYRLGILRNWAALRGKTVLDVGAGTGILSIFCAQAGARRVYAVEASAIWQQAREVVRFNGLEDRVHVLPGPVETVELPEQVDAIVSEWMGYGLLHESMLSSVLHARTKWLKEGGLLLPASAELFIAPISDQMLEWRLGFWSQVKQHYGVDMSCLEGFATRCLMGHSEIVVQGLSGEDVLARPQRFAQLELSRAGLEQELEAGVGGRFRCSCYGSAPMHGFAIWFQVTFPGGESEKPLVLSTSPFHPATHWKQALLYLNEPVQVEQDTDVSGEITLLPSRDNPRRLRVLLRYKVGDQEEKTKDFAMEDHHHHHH
Summary of the method: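 Methylation of a biotin-tagged H4 (36-50) peptide by ³H-SAM was quantified by streptavidin Flashplate capture and scintillation counts (dpm/cpm). Before SAM/peptide addition, Flag-PRMT6-His was preincubated with compound for 30 min at room temperature in Bicine buffer, pH 7.6.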

[2] = read-out: EC30 (In Cell Western data, Numerical, μM)
[3] = Biochemical IC50 PRMT6, single experiment or average of multiple experiments
[4] = RKO cells, 72 hours, mono-methyl arginine, percent activation, single experiment or average of multiple experiments, read-out: EC30 (In Cell Western data, Numerical)
[5] = RKO cells, 72 hours, mono-methyl arginine, percent activation
[6] = single experiment or average of multiple experiments, read-out: Biochemical IC50 PRMT6

SMILES	pIC50 (human PRMT6; [3])	EC30 [1, 4] [µM]	further results
CNCCN(C)Cc1c[nH]nc1-c1ccc(F)cc1 [Compound 2, N^1-((3-(4-fluorophenyl)-1H-pyrazol-4-yl)methyl)-N^1,N^2-dimethylethane-1,2-diamine]	7.02		EC30 [1, 2]: 1.12 µM
CCCc1ccc(-c2n[nH]cc2CN(C)CCNC)cc1 [Compound 20]	8.11	0.18	
CNCCN(C)Cc1c[nH]nc1-c1cccc([N+](=O)[O-])c1 [Compound 21]	7.91		
CNCCN(C)Cc1c[nH]nc1-c1cccc(C#N)c1 [Compound 22]	7.93		
CNCCN(C)Cc1c[nH]nc1-c1ccccc1OC [Compound 23]	6.74		
CNCCN(C)Cc1c[nH]nc1-c1cccc(OC)c1 [Compound 24]	7.58		
CNCCN(C)Cc1c[nH]nc1-c1ccc(OC)cc1 [Compound 25]	7.96		
CNCCN(C)Cc1c[nH]nc1-c1cccc(O)c1 [Compound 26]	7.65		
CNCCN(C)Cc1c[nH]nc1-c1ccc(O)cc1 [Compound 27]	7.73	12.3	
CNCCN(C)Cc1c[nH]nc1-c1ccc(CO)cc1 [Compound 28]	8.04	10.2	
CNCCN(C)Cc1c[nH]nc1-c1ccc(C)cc1C [Compound 29]	7.21		
CNCCN(C)Cc1cn(CCCC(O)CO)nc1-c1ccc(F)cc1 (centres unmarked) [Compound 30]	6.25		
CNCCN(C)Cc1cnn(CCCC(O)CO)c1-c1ccc(F)cc1 (centres unmarked) [Compound 31]	6.96		
CNCCN(C)Cc1c[nH]nc1-c1ccc(N)cc1 [Compound 33]	7.42		
CNCCN(C)Cc1c[nH]nc1-c1ccc(Oc2ccccc2)cc1 [Compound 37]	8.48	0.05	
CNCCN(C)Cc1c[nH]nc1-c1ccccc1C(F)(F)F [Compound 38]			EC30 (In Cell Western data) [1, 5]: C (“C” indicates an EC30 ≧ 12.01 μM); pIC50 (human PRMT6; [6]): 6.45
CCNC(=O)c1cccc(-c2n[nH]cc2CN(C)CCNC)c1 [Compound 43]	7.28		
CNCCN(C)Cc1c[nH]nc1-c1ccc(C(=O)c2ccccc2)cc1 [Compound 45]			EC30 (In Cell Western data) [1, 5]: A (“A” indicates an EC30 ≦ 3.00 μM); EC30 (In Cell Western data, Numerical, μM) ([1]; RKO cells, 72 hours, mono-methyl arginine, percent activation, single experiment or average of multiple experiments): 0.454 µM; pIC50 (human PRMT6; [6]): 8.12
CNCCN(C)Cc1c[nH]nc1-c1ccccc1-c1ccccc1 [Compound 46]			EC30 (In Cell Western data) [1, 5]: C (“C” indicates an EC30 ≧ 12.01 μM); pIC50 (human PRMT6; [6]): 5.49
CNCCN(C)Cc1c[nH]nc1-c1ccc(F)cc1F [Compound 49]	7.41		
CNCCN(C)Cc1c[nH]nc1-c1cc(F)ccc1F [Compound 50]	7.37		
CNCCN(C)Cc1c[nH]nc1-c1ccc(F)c(F)c1 [Compound 51]	8.00		

SMILES	pIC50 (human PRMT6; [3])	EC30 [1, 4] [µM]	further results
CNCCN(C)Cc1c[nH]nc1-c1ccc(OC)c(F)c1 [Compound 52]	8.05		
CNCCN(C)Cc1c[nH]nc1-c1ccc(OC)cc1OC [Compound 55]			EC30 (In Cell Western data) [1, 5]: C (“C” indicates an EC30 ≧ 12.01 μM); pIC50 (human PRMT6; [6]): 7.06
CNCCN(C)Cc1c[nH]nc1-c1c(OC)cccc1OC [Compound 56]			EC30 (In Cell Western data) [1, 5]: C (“C” indicates an EC30 ≧ 12.01 μM); pIC50 (human PRMT6; [6]): 5.72
CNCCN(C)Cc1c[nH]nc1-c1cccc2ccccc12 [Compound 57]	7.99		
CNCCN(C)Cc1c[nH]nc1-c1ccc2ccccc2c1 [Compound 58]	8.21		
CNCCN(C)Cc1cn(CCC(O)CO)nc1-c1ccc(F)cc1 (centres unmarked) [Compound 59]	6.20		
CCN(CCN)Cc1c[nH]nc1-c1ccc(F)cc1 [Compound 62]	8.10	> 20	
CCCN(CCN)Cc1c[nH]nc1-c1ccc(F)cc1 [Compound 63]	5.94	> 20	
CN(CCN)Cc1cnn(CCO)c1-c1ccc(F)cc1 [Compound 65]	6.37		
CN(CCN)Cc1cn(CCO)nc1-c1ccc(F)cc1 [Compound 66]	5.98		
CN(CCN)Cc1c[nH]nc1-c1ccc(C#N)cc1 [Compound 68]	8.17	0.775	
CNCCN(C)Cc1c[nH]nc1-c1cc(C(C)C)cc(C(C)C)c1 [Compound 229, N^1-((3-(3,5-diisopropylphenyl)-1H-pyrazol-4-yl)methyl)-N^1,N^2-dimethylethane-1,2-diamine]	6.70	8.71	
CNCCN(C)Cc1c[nH]nc1-c1ccc(Oc2cccc(OC)c2)cc1 [Compound 230]	8.66	0.206	
CNCCN(C)Cc1c[nH]nc1-c1ccc(Oc2cccc(F)c2)cc1 [Compound 231]	8.53	0.23	
CNCCN(C)Cc1c[nH]nc1-c1ccc(Oc2ccccc2)c(C(=O)NC)c1 [Compound 232]	7.78	7.14	
CNCCN(C)Cc1c[nH]nc1-c1ccc(Oc2ccccc2)c(C(=O)N(C)C)c1 [Compound 233]	7.74	17.3	
CC(C)Cc1cccc(-c2n[nH]cc2CN(C)CCN)c1 [Compound 235]	6.75	1.56	
CNCCN(C)Cc1c[nH]nc1-c1ccc(OCCCO)cc1 [Compound 236]	7.83	0.852	
CNCCN(C)Cc1c[nH]nc1-c1ccc(Oc2ccccc2F)cc1 [Compound 237]	8.67	0.114	
CNCCN(C)Cc1n[nH]cc1-c1ccc(Oc2cccc(OC)c2)cc1 [Compound 239]	9.00	1.28	
CNCCN(C)Cc1n[nH]cc1-c1ccc(Oc2ccccc2)c(C(=O)NC)c1 [Compound 240]	7.84	6.45	
CNCCN(C)Cc1n[nH]cc1-c1ccc(Oc2ccccc2)c(C(=O)N(C)C)c1 [Compound 241]	7.47	10.4	

SMILES	pIC50 (human PRMT6; [3])	EC30 [1, 4] [µM]	further results
CNCCN(C)Cc1n[nH]cc1-c1cc(C(C)C)cc(C(C)C)c1 [Compound 242]	< 6.00	> 20	
CNCCN(C)Cc1cn(C)nc1-c1ccc(OC(C)C)cc1 [Compound 243, N^1-((3-(4-isopropoxyphenyl)-1-methyl-1H-pyrazol-4-yl)methyl)-N1,N2-dimethylethane-1,2-diamine]	6.54	0.809	
CNCCN(C)Cc1cn(Cc2ccncc2)nc1-c1ccc(OC(C)C)cc1 [Compound 245]	6.65	0.627	
CNCCN(C)Cc1cn(Cc2cccnc2)nc1-c1ccc(OC(C)C)cc1 [Compound 246]	6.50		EC30 [1, 2]: 1.08 µM
CNCCN(C)Cc1cn(Cc2ccccn2)nc1-c1ccc(OC(C)C)cc1 [Compound 247]	6.09	8.26	
CNCCN(C)Cc1cn(CC(=O)OC)nc1-c1ccc(OC(C)C)cc1 [Compound 248]	6.08	> 20	
CNCCN(C)Cc1cnn(CC(=O)OC)c1-c1ccc(OC(C)C)cc1 [Compound 249]	6.37		EC30 [1, 2]: 9.53 µM
CNCCN(C)Cc1cn(CC(=O)O)nc1-c1ccc(OC(C)C)cc1 [Compound 250]	5.37		EC30 [1, 2]: > 20 µM
CNCCN(C)Cc1cn(CC(N)=O)nc1-c1ccc(OC(C)C)cc1 [Compound 251]	5.62	18.7	
CCn1ncc(CN(C)CCNC)c1-c1ccc(OC(C)C)cc1 [Compound 252]	6.99		EC30 [1, 2]: 1.82 µM
CNCCN(C)Cc1cn(CCOC)nc1-c1ccc(OC(C)C)cc1 [Compound 253, N1-((3-(4-isopropoxyphenyl)-1-(2-methoxyethyl)-1H-pyrazol-4-yl)methyl)-N1,N2-dimethylethane-1,2-diamine hydrochloride]	6.13		EC30 [1, 2]: 8 µM
CNCCN(C)Cc1cn(C2CCC2)nc1-c1ccc(OC(C)C)cc1 [Compound 254, N1-((1-cyclobutyl-3-(4-isopropoxyphenyl)-1H-pyrazol-4-yl)methyl)-N1,N2-dimethylethane-1,2-diamine hydrochloride]	6.70		EC30 [1, 2]: 2.24 µM
CNCCN(C)Cc1cnn(C2CCCC2)c1-c1ccc(OC(C)C)cc1 [Compound 255]	7.12		EC30 [1, 2]: 2.66 µM
CNCCN(C)Cc1cn(C2CCCCC2)nc1-c1ccc(OC(C)C)cc1 [Compound 256]	6.04	> 20	
C=C(C)C(=O)Nc1cccc(-c2[nH]ncc2CN(C)CCNC)c1 [Compound 257]	6.67	> 20	
C=CC(=O)Nc1cccc(-c2[nH]ncc2CN(C)CCNC)c1 [Compound 258]	6.76	> 20	
CN(CCN)Cc1c[nH]nc1-c1ccc(Oc2ccccc2F)cc1 [Compound 259]	9.10	0.532	
CNCCN(C)Cc1c[nH]nc1-c1cc(OC(C)C)cc(C(C)C)c1 [Compound 260]	6.61	6.07	
CNCCN(C)Cc1c[nH]nc1-c1ccc(Oc2cccc(C#N)c2)cc1 [Compound 261]	8.61	0.327	
CNCCN(C)Cc1c[nH]nc1-c1ccc(Oc2cccc(C(C)C)c2)cc1 [Compound 262]	8.84	1.23	
CNCCN(C)Cc1c[nH]nc1-c1cc(Cl)c(OC(C)C)c(Cl)c1 [Compound 265, N^1-((3-(3,5-dichloro-4-isopropoxyphenyl)-1H-pyrazol-4-yl)methyl)-N^1,N^2-dimethylethane-1,2-diamine]	7.81	0.503	
CNCCN(C)Cc1nn(C)cc1-c1ccc(OCCCOC)cc1 [Compound 266]	7.48	> 20	
